Source: publication PMC9178793, “A Direct Assay for Measuring the Activity and Inhibition of Coactivator-Associated Arginine Methyltransferase 1” (Biochemistry, 2022)
Read-outs that look alike come from different tables or passages of the source. *1 amine or outer side, *2 acyl side, *3 side chain or, on linkers, in order; H or OH if unused. Where a SMILES comes first, the peptide text is derived from it. [ ]: non-standard residue; d: D form. X1 = N=C(NCCC[C@H](N[*:1])C(=O)[*:2])NCCC[C@H]1O[C@@H](n2cnc3c(N)ncnc32)[C@H](O)[C@@H]1O

What was measured:
CARM1 [1] = biological target: T1, CARM1 (Mus musculus, UniProt Q9WVG6); experiment: MRM LC-MS CARM1 enzyme inhibition assay (PABP1 456–466 peptide substrate, direct detection of aDMA product); assay type: biochemical; conditions: 286 nM CARM1, 12 μM PABP1 456–466, 10 μM AdoMet, 15 min preincubation, 2 h room temperature; duplicate data, ± SD
T1 construct: corresponding to the PRMT core (residues 130–497, mmCARM1_130–497) were amplified by PCR; GST (followed by TEV protease cleavage site) (N, cleaved yes); made in house; host or cells: Sf9 insect cells (baculovirus)
T1 sequence (Q9WVG6 130-497): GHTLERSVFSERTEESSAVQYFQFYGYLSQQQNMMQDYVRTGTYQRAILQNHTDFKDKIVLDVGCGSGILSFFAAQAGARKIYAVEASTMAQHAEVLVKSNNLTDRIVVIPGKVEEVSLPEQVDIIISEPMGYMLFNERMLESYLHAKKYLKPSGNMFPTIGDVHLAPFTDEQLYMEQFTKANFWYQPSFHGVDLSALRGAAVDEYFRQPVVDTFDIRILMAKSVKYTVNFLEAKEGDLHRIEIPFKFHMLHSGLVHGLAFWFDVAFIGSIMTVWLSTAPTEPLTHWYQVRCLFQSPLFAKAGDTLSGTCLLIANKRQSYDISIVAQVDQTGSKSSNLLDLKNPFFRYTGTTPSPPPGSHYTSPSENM
Excerpt: The positive clones were confirmed by sequencing (GATC). The sequences were subcloned in a pDEST20 vector using an LR reaction. The resulting recombinant protein is harboring an amino-terminal glutathione S-transferase (GST) tag followed by a Tobacco etch virus (TEV) protease cleavage site. […] Bacmid DNA purified from recombination-positive white colonies was transfected into Sf9 cells using the Lipofectin reagent (Invitrogen). Viruses were harvested 10 days after transfection. Sf9 cells were grown at 300 K in suspension culture in Grace medium (Gibco) using Bellco spinner flasks. sf9 cell culture (1 L, 0.8 × 10^6 cells·mL^-1) was infected with recombinant […]1 virus with an infection multiplicity of 1. The cells were harvested 48 h post-infection. Cell lysis was performed by sonication in 50 mL of buffer A [50 mM Tris-HCl pH 8.0, 250 mM NaCl, 5% glycerol, 5 mM TCEP, 0.01% NP40 and anti-proteases (Roche, Complete, EDTA-free)], and cellular debris was sedimented by centrifugation of the lysate at 40 000g for 30 min. The supernatant was incubated overnight at 277 K with 2 mL of glutathione Sepharose resin (GE Healthcare). After a short centrifugation, the supernatants were discarded, and the beads were poured in an Econo-column (Bio-Rad). After two washing steps with 10 mL of buffer A, 2 mL of buffer A supplemented with in-house produced TEV protease was applied to the columns and digestion was performed for 4 h at 303 K with gentle mixing. The digest was concentrated with an Amicon Ultra 10K (Milipore), loaded on a gel-filtration column (HiLoad 16/60 Superdex S200, GE Healthcare), and eluted at 1 mL·min^-1 with buffer B [20 mM Tris-HCl pH 8.0, 100 mM NaCl, 1 mM TCEP] using an ÄKTA Purifier device (GE Healthcare). Fractions containing […]1_130-497 were pooled and concentrated to 7.75 mg·mL^-1. […] The reaction was subsequently quenched by the addition of 30 μL of the reaction mixture to 10 μL of a 0.1% formic acid solution (pH 2). […] The supernatant (60 μL) was transferred to a new 96-well plate and analyzed. […] The products were eluted with a water-acetonitrile gradient moving from 20 to 92% acetonitrile (0.1% FA) over 6 min at a flow rate of 0.5 mL·min^-1. The injection volume was 10 μL. The ionization source was operated in positive mode using an interface voltage of 4.5 kV, nebulizing gas at 1.5 L/min, drying gas at 15 L/min, and a desolvation line (DL) temperature of 250 °C. The MRM parameter optimization was performed using both the analyte (PABP1^456-466-R^460-aDMA) and hexadeuterated internal standard (PABP1^456-466-R^460-d6-aDMA). The results of this optimization, which include precursor ion scanning, collision energy, and Q1 and Q3 scanning, are summarized in Table 1. […] For commercially available inhibitors that were not soluble in water, stock solutions were prepared in DMSO and diluted to a final DMSO concentration of <1% in the assay mixture. […] The mixture was incubated for 2 h at room temperature, and the reaction was subsequently quenched by the addition of 30 μL of the reaction mixture to 10 μL of a 0.1% formic acid solution (pH 2). […] The supernatant (60 μL) was transferred to a new 96-well plate and analyzed by LC-MS as described above. Negative controls (no enzyme) and positive controls (no inhibitor) were included in each plate. For quantification of the methylated product, the area ratio of analyte to internal standard was calculated and quantified using the linearity line obtained with the reference standards. […] To obtain kcat with units of s^-1, the maximal velocity (Vmax) is divided by 3600. [drawing 3] 3 The percentage inhibition was plotted as a function of inhibitor concentration and fit using a nonlinear regression analysis of the sigmoidal dose-response curve generated using the normalized data and a variable slope following eq 4. [drawing 4] 4 where Y is the percent inhibition, X is the logarithmic concentration of the inhibitors, and Hill Slope is the slope factor or Hill coefficient. […]

CARM1 [2] = biological target: T2, CARM1 (Homo sapiens, UniProt Q86X55); conditions: chemiluminescent ELISA kit, H3-derived peptide, 1 μM AdoMet; cited from earlier work
T2 sequence (Q86X55 1-608): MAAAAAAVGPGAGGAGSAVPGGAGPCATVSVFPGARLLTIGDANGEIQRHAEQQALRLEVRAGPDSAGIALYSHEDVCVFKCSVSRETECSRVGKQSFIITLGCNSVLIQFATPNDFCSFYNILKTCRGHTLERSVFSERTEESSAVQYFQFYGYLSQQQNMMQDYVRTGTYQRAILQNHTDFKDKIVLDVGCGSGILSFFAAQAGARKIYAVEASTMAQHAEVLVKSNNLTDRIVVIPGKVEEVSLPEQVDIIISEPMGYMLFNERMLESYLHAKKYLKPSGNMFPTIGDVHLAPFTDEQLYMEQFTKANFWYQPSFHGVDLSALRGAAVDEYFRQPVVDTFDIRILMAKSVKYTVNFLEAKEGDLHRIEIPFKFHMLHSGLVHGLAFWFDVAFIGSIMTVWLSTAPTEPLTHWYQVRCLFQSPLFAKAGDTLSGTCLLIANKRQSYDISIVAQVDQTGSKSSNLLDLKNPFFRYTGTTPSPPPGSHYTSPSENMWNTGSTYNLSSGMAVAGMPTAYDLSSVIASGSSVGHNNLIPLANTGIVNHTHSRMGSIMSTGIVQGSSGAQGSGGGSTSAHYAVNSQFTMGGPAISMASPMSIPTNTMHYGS

CARM1 [3] = biological target: T2, CARM1; experiment: commercially available chemiluminescent antibody-based ELISA kit (histone H3-derived peptide, aDMA at H3-R17); assay type: biochemical
Description: We next applied the assay in assessing the inhibition of CARM1 by a number of known inhibitors of varying potencies including AdoHcy (1), MS023 (2), MS049 (3), TP064 (4), and a series of recently reported peptidomimetic CARM1 inhibitors (5–9) (Figure 3).[20],[32]−[35] For the purpose of generating IC50 curves for these inhibitors, concentration ranges were set according to previously reported IC50 values. The inhibitors were first incubated with CARM1 for 15 min at room temperature before the enzyme reaction was initiated by the addition of the AdoMet/PABP1^456–466 substrate mixture. On the basis of the residual CARM1 activity measured, inhibition curves were generated and the IC50 values were determined (Table 3). To evaluate the suitability of the method for the determination of CARM1 inhibition, the IC50 values were compared with those obtained using a commercially available chemiluminescent ELISA kit. […] In addition, the peptide substrate and detection method employed in the ELISA kit are inherently different. The kit employs a histone H3-derived peptide that is covalently linked to the bottom of the well plate, and as such, no substrate concentration is given. Product formation in turn is detected using specific antibodies that recognize aDMA formation at arginine residue H3-R^17.

| IC50 (CARM1 [1]) | IC50 (CARM1 [3]) | SMILES | IC50 (CARM1 [2]) |
| --- | --- | --- | --- |
| 873 ± 339 nM |  | Nc1ncnc2c1ncn2[C@@H]1O[C@H](CSCC[C@H](N)C(=O)O)[C@@H](O)[C@H]1O [Compound 1, S-adenosyl-L-homocysteine, reference compound] |  |
| 617 ± 57 nM |  | CC(=O)N[C@@H](C)C(=O)N1CCC[C@H]1C(=O)N[C@@H](CCCNC(=N)NCCC[C@H]1O[C@@H](n2cnc3c(N)ncnc32)[C@H](O)[C@@H]1O)C(=O)N[C@@H](CCCCN)C(=O)N[C@@H](CCC(N)=O)C(=O)N[C@@H](CC(C)C)C(N)=O [Compound 7] (Ac-AP[X1]KQL-NH2) |  |
| 1460 ± 21 nM |  | CC(=O)N1CCC[C@H]1C(=O)N[C@@H](CCCNC(=N)NCCC[C@H]1O[C@@H](n2cnc3c(N)ncnc32)[C@H](O)[C@@H]1O)C(=O)N[C@@H](CCCCN)C(=O)N[C@@H](CCC(N)=O)C(N)=O [Compound 8] |  |
| 403 ± 28 nM |  | CC(=O)N[C@@H](CCCCN)C(=O)N[C@@H](C)C(=O)N1CCC[C@H]1C(=O)N[C@@H](CCCNC(=N)NCCC[C@H]1O[C@@H](n2cnc3c(N)ncnc32)[C@H](O)[C@@H]1O)C(=O)N[C@@H](CCCCN)C(=O)N[C@@H](CCC(N)=O)C(=O)N[C@@H](CC(C)C)C(=O)N[C@@H](C)C(N)=O [Compound 6] (Ac-KAP[X1]KQLA-NH2) |  |

Second part, the compound before the results:

| SMILES | IC50 (CARM1 [1]) | IC50 (CARM1 [3]) | IC50 (CARM1 [2]) |
| --- | --- | --- | --- |
| CSCC[C@H](NC(=O)[C@@H](NC(=O)[C@H](CO)NC(=O)[C@H](Cc1ccccc1)NC(=O)[C@@H]1CCCN1C(=O)[C@@H]1CCCN1C(=O)[C@H](CCCNC(=N)NCCC[C@H]1O[C@@H](n2cnc3c(N)ncnc32)[C@H](O)[C@@H]1O)NC(=O)[C@@H]1CCCN1C(=O)[C@H](C)NC(=O)[C@H](C)NC(=O)[C@@H]1CCCN1C(C)=O)[C@@H](C)O)C(N)=O [Compound 9] (Ac-PAAP[X1]PPFSTM-NH2) | 212 ± 25 nM |  | 90 ± 16 nM |
| CC(C)Oc1ccc(-c2c[nH]cc2CN(C)CCN)cc1 [Compound 2, reference compound] | 327 ± 34 nM | 101 ± 11 nM |  |
| CC(=O)N[C@@H](CO)C(=O)N[C@H](C(=O)NCC(=O)NCC(=O)N[C@@H](CCCCN)C(=O)N[C@@H](C)C(=O)N1CCC[C@H]1C(=O)N[C@@H](CCCNC(=N)NCCC[C@H]1O[C@@H](n2cnc3c(N)ncnc32)[C@H](O)[C@@H]1O)C(=O)N[C@@H](CCCCN)C(=O)N[C@@H](CCC(N)=O)C(=O)N[C@@H](CC(C)C)C(=O)N[C@@H](C)C(=O)N[C@H](C(=O)N[C@@H](CCCCN)C(=O)N[C@@H](C)C(=O)N[C@@H](C)C(N)=O)[C@@H](C)O)[C@@H](C)O [Compound 5] (Ac-STGGKAP[X1]KQLATKAA-NH2) | 770 ± 98 nM |  |  |
| CNCCN1CCC(c2cc(CN(C)C(=O)c3cccc(Oc4ccccc4)c3)ccn2)CC1 [Compound 4, reference compound] | 162 ± 10 nM |  |  |
